Laboratory results: patent US20240382517A1, “Topical Pharmaceutical Skin Composition for the Delivery of Nitric Oxide in Combination with Other Topical Dermatologic Agents” (NOxy Health Products, Inc., priority 2023, published 2024)
Entries after “also recorded” stand apart in the source; their conditions may differ. Structures can show the parent of a compound that is named as a salt.

Assays:
Assay type in all cases: physicochemical
[1] = NOx production of mixed foams, Thermoscientific 42iQLS Gas Analyzer; details: 0.4 M, 0.5 M, 0.6 M ascorbic acid as first (A) solution + second (B) solution without BAC; compared to citric acid; FIG. 4
Protocol: Methods. Solutions A and B were agitated by vigorous shaking until they produced foams. Then, two pumps of foam A (from Solution A) and foam B (from Solution B) were added to a weigh boat, and then the resulting mixture was thoroughly mixed with a gloved finger for five seconds. The resulting mixture was then placed in the sample chamber for measurement using a Thermoscientific 42iQLS Gas Analyzer. The measured concentration of the NOx produced was recorded every ten seconds. Using the Ideal Gas Law, the mass in mols of NOx was calculated.
The first (A) solution was prepared as described in Example 1, except BAC was not included. The second (B) solution was prepared by dissolving salicylic acid in a stoichiometric amount of sodium hydroxide dissolved in water. Once all of the salicylic acid was dissolved, sodium nitrite and coco betaine were added. The first (A) and second (B) solutions were then mixed. A foam was produced upon the mixing/priming of the first (A) solution and the second (B) solution.
Three solutions of ascorbic acid (0.4 M, 0.5 M, and 0.6 M) were prepared and used as first (A) solutions. The second (B) solution was as provided in Example 1 except that BAC was not included. The solutions were poured into small foam dispensers. One squirt of foam from each of the first (A) solution and the second (B) solution was combined in a weight boat and NOx formation was measured.

[2] = NOx release from mixed liquids, Thermoscientific 42iQLS Gas Analyzer
From the text: For the NO release testing, one mL of each solution was dispensed into a weight boat using the pipetter. A new pipette tip was used for each aliquot. For NO release measurements, the weigh boat was then placed into the sampling bin of a Thermoscientific 42iQLS Gas Analyzer, and the lid placed on top. The analyzer began measuring NOx released from the mixed liquid in the weigh boat as indicated by the rise of both the NO and NO2 measurements on the screen of the analyzer, a 10-minute timer was started.
Once the datalogger had collected 70 time points (700 seconds) of data: • 1. the data logging program was halted • 2. The weigh boat was removed from the chamber and disposed of in a separate room • 3. A fan was used to blow fresh air into the testing chamber for 10 seconds • 4. The next test was conducted when the analyzer measured less than 5 ppm total NOx […]
About 1 mL of Manuka honey was mixed with 1 mL of standard second (B) solution (not including BAC). […]

[3] = pH of lidocaine HCl solution, calibrated lab pH meter; details: 4 percent solution in water
Protocol: A 4% w/w solution of lidocaine in deionized water was prepared. The pH of the solution was measured using a conventional calibrated lab pH meter.

[4] = Mixing of lidocaine HCl solution into the first (A) solution in a stable manner; details: first (A) solution not including BAC; monitoring time three minutes
From the text: The monitoring time was three minutes.

O=C1O[C@H]([C@@H](O)CO)C(O)=C1O [ascorbic acid]
production of NOx [1]: lower levels of production of NOx than citric acid

CCN(CC)CC(=O)Nc1c(C)cccc1C [lidocaine HCl]
NOx release ([2]; 4 percent lidocaine HCl solution mixed with second (B) solution (no BAC) only, FIG. 6): NO was produced; also recorded: Only a small amount of NOx was released | NOx release ([2]; 4 percent lidocaine HCl solution mixed with standard first (A) and second (B) solutions (no BAC), FIG. 7): NO was also produced; also recorded: a large amount of NOx was released | pH [3]: 4.16 | reaction on mixing with the standard first (A) solution [4]: No reaction was observed
